Measurements: PubChem BioAssay (NCI)
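The concentration for 50% growth inhibition is given as GI50. TGI: total growth inhibition.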

How the values were obtained:
Experiment in all cases: growth of human tumour cells (NCI), 384-well format
SR leukemia = system: SR leukemia
RXF 393 renal = system: RXF 393 renal
SF-268 CNS = system: SF-268 CNS
TK-10 renal = system: TK-10 renal
SK-MEL-28 melanoma = system: SK-MEL-28 melanoma
CAKI-1 renal = system: CAKI-1 renal
HCT-116 colon = system: HCT-116 colon
OVCAR-8 ovarian = system: OVCAR-8 ovarian
ACHN renal = system: ACHN renal
BT-549 breast = system: BT-549 breast
MDA-MB-231 breast = system: MDA-MB-231 breast
CCRF-CEM leukemia = system: CCRF-CEM leukemia
HCT-15 colon = system: HCT-15 colon
T-47D breast = system: T-47D breast
SK-MEL-2 melanoma = system: SK-MEL-2 melanoma
SW-620 colon = system: SW-620 colon
OVCAR-4 ovarian = system: OVCAR-4 ovarian
HT29 colon = system: HT29 colon
SNB-19 CNS = system: SNB-19 CNS
HS 578T breast = system: HS 578T breast
HL-60(TB) leukemia = system: HL-60(TB) leukemia
NCI/ADR-RES ovarian = system: NCI/ADR-RES ovarian
OVCAR-3 ovarian = system: OVCAR-3 ovarian
UACC-257 melanoma = system: UACC-257 melanoma
SF-539 CNS = system: SF-539 CNS
MALME-3M melanoma = system: MALME-3M melanoma
UO-31 renal = system: UO-31 renal
A549 NSCLC = system: A549 NSCLC
SNB-75 CNS = system: SNB-75 CNS
NCI-H322M lung = system: NCI-H322M lung
A498 renal = system: A498 renal
U251 glioblastoma = system: U251 glioblastoma
MOLT-4 leukemia = system: MOLT-4 leukemia
NCI-H522 lung = system: NCI-H522 lung
PC-3 prostate = system: PC-3 prostate
NCI-H23 lung = system: NCI-H23 lung
MDA-MB-435 melanoma = system: MDA-MB-435 melanoma
MCF7 breast = system: MCF7 breast
MDA-MB-468 breast = system: MDA-MB-468 breast
SK-OV-3 ovarian = system: SK-OV-3 ovarian
SN12C renal = system: SN12C renal
OVCAR-5 ovarian = system: OVCAR-5 ovarian
EKVX NSCLC = system: EKVX NSCLC
DU-145 prostate = system: DU-145 prostate
M14 melanoma = system: M14 melanoma
NCI-H460 NSCLC = system: NCI-H460 NSCLC
786-0 renal = system: 786-0 renal

## CC(C)n1cc(-c2ccc3c(c2)N(C)CC3)c2c(NS(=O)(=O)c3ccn(C)n3)ccnc21
SR leukemia
  GI50: 36.5 µM
  TGI: > 100 µM
RXF 393 renal
  GI50: 51.2 µM
  TGI: > 100 µM
SF-268 CNS
  GI50: > 100 µM
  TGI: > 100 µM
TK-10 renal
  GI50: > 100 µM
  TGI: > 100 µM
SK-MEL-28 melanoma
  GI50: > 93.5 µM
  TGI: > 100 µM
CAKI-1 renal
  GI50: > 100 µM
  TGI: > 100 µM
HCT-116 colon
  GI50: > 100 µM
  TGI: > 100 µM
OVCAR-8 ovarian
  GI50: > 70.4 µM
  TGI: > 100 µM
ACHN renal
  GI50: > 100 µM
  TGI: > 100 µM
BT-549 breast
  GI50: > 100 µM
  TGI: > 100 µM
MDA-MB-231 breast
  GI50: > 68.8 µM
  TGI: > 100 µM
CCRF-CEM leukemia
  GI50: 45.3 µM
  TGI: > 100 µM
HCT-15 colon
  GI50: 90.6 µM
  TGI: > 100 µM
T-47D breast
  GI50: 50.9 µM
  TGI: > 100 µM
SK-MEL-2 melanoma
  GI50: > 100 µM
  TGI: > 100 µM
SW-620 colon
  GI50: > 51.5 µM
  TGI: > 81.7 µM
OVCAR-4 ovarian
  GI50: 59.8 µM
  TGI: > 100 µM
HT29 colon
  GI50: > 77.2 µM
  TGI: > 100 µM
SNB-19 CNS
  GI50: > 100 µM
  TGI: > 100 µM
HS 578T breast
  GI50: 69.3 µM
  TGI: > 100 µM
HL-60(TB) leukemia
  GI50: 33.1 µM
  TGI: > 61.4 µM
NCI/ADR-RES ovarian
  GI50: 61.2 µM
  TGI: > 100 µM
OVCAR-3 ovarian
  GI50: 40.5 µM
  TGI: > 87.6 µM
UACC-257 melanoma
  GI50: > 100 µM
  TGI: > 100 µM
SF-539 CNS
  GI50: > 100 µM
  TGI: > 100 µM
MALME-3M melanoma
  GI50: > 100 µM
  TGI: > 100 µM
UO-31 renal
  GI50: 78.6 µM
  TGI: > 100 µM
A549 NSCLC
  GI50: 47.1 µM
  TGI: > 100 µM
SNB-75 CNS
  GI50: > 88.1 µM
  TGI: > 100 µM
NCI-H322M lung
  GI50: > 100 µM
  TGI: > 100 µM
A498 renal
  GI50: 85.7 µM
  TGI: > 100 µM
U251 glioblastoma
  GI50: 87.1 µM
  TGI: > 100 µM
MOLT-4 leukemia
  GI50: 39.1 µM
  TGI: > 100 µM
NCI-H522 lung
  GI50: > 80.4 µM
  TGI: > 100 µM
PC-3 prostate
  GI50: 66.7 µM
  TGI: > 100 µM
NCI-H23 lung
  GI50: > 70 µM
  TGI: > 100 µM
MDA-MB-435 melanoma
  GI50: > 93 µM
  TGI: > 100 µM
MCF7 breast
  GI50: 56.3 µM
  TGI: > 100 µM
MDA-MB-468 breast
  GI50: 56.8 µM
  TGI: > 100 µM
SK-OV-3 ovarian
  GI50: > 52.6 µM
  TGI: > 85.4 µM
SN12C renal
  GI50: > 100 µM
  TGI: > 100 µM
OVCAR-5 ovarian
  GI50: > 100 µM
  TGI: > 100 µM
EKVX NSCLC
  GI50: 75.6 µM
  TGI: > 100 µM
DU-145 prostate
  GI50: > 70.7 µM
  TGI: > 100 µM
M14 melanoma
  GI50: > 100 µM
  TGI: > 100 µM
NCI-H460 NSCLC
  GI50: > 85.7 µM
  TGI: > 100 µM
786-0 renal
  GI50: > 100 µM
  TGI: > 100 µM

## Cc1nc2ccc(-n3ncc(C(=O)c4cc5ccccc5[nH]4)c3N)cc2[nH]1
SR leukemia
  GI50: 0.668 µM
  TGI: 1.58 µM
RXF 393 renal
  GI50: 2.37 µM
  TGI: 10.5 µM
SF-268 CNS
  GI50: 10.6 µM
  TGI: 55.9 µM
TK-10 renal
  GI50: 4.78 µM
  TGI: 20.5 µM
SK-MEL-28 melanoma
  GI50: 19.5 µM
  TGI: 58.3 µM
CAKI-1 renal
  GI50: 6.43 µM
  TGI: 39.8 µM
HCT-116 colon
  GI50: 3.78 µM
  TGI: 16.1 µM
OVCAR-8 ovarian
  GI50: 6.08 µM
  TGI: 18.8 µM
ACHN renal
  GI50: 8.92 µM
  TGI: 48.5 µM
BT-549 breast
  GI50: 5.72 µM
  TGI: 20.7 µM
MDA-MB-231 breast
  GI50: 4.8 µM
  TGI: 44.9 µM
CCRF-CEM leukemia
  GI50: 5.85 µM
  TGI: 18.7 µM
HCT-15 colon
  GI50: 1.56 µM
  TGI: 13.4 µM
T-47D breast
  GI50: 6.8 µM
  TGI: 19.3 µM
SK-MEL-2 melanoma
  GI50: 28.2 µM
  TGI: 44 µM
SW-620 colon
  GI50: 10.4 µM
  TGI: 51.2 µM
OVCAR-4 ovarian
  GI50: 10.4 µM
  TGI: 40.2 µM
HT29 colon
  GI50: 5.55 µM
  TGI: 20.5 µM
SNB-19 CNS
  GI50: 16 µM
  TGI: > 66.7 µM
HS 578T breast
  GI50: 6.48 µM
  TGI: 26 µM
HL-60(TB) leukemia
  GI50: 2.97 µM
  TGI: 12.3 µM
NCI/ADR-RES ovarian
  GI50: 8.76 µM
  TGI: 23.8 µM
OVCAR-3 ovarian
  GI50: 10.7 µM
  TGI: 26 µM
UACC-257 melanoma
  GI50: 15.1 µM
  TGI: 32.6 µM
SF-539 CNS
  GI50: 2.13 µM
  TGI: 10.5 µM
MALME-3M melanoma
  GI50: 13.1 µM
  TGI: 33.8 µM
UO-31 renal
  GI50: 7.35 µM
  TGI: 34.5 µM
A549 NSCLC
  GI50: 9.61 µM
  TGI: 56.8 µM
SNB-75 CNS
  GI50: 2.34 µM
  TGI: 19.8 µM
NCI-H322M lung
  GI50: 16.4 µM
  TGI: 38.9 µM
A498 renal
  GI50: 12.4 µM
  TGI: 33.5 µM
U251 glioblastoma
  GI50: 6.53 µM
  TGI: 25.5 µM
MOLT-4 leukemia
  GI50: 1.93 µM
  TGI: 5 µM
NCI-H522 lung
  GI50: 5.33 µM
  TGI: 17.6 µM
PC-3 prostate
  GI50: 7.51 µM
  TGI: 26.6 µM
NCI-H23 lung
  GI50: 17.5 µM
  TGI: 36.4 µM
MDA-MB-435 melanoma
  GI50: 11.2 µM
  TGI: 42.9 µM
MCF7 breast
  GI50: 6.62 µM
  TGI: 24.8 µM
MDA-MB-468 breast
  GI50: 4.15 µM
  TGI: 16.7 µM
SK-OV-3 ovarian
  GI50: 11.3 µM
  TGI: 30.6 µM
SN12C renal
  GI50: 6.46 µM
  TGI: 45.9 µM
OVCAR-5 ovarian
  GI50: 8.84 µM
  TGI: > 82.6 µM
EKVX NSCLC
  GI50: 15.3 µM
  TGI: 41.1 µM
DU-145 prostate
  GI50: 12.7 µM
  TGI: 41.7 µM
M14 melanoma
  GI50: 12.5 µM
  TGI: 28.4 µM
NCI-H460 NSCLC
  GI50: 2.37 µM
  TGI: 9.74 µM
786-0 renal
  GI50: 8.85 µM
  TGI: 26.7 µM
